# System: 616215-338-R-J1-PDC spheroids with HUVEC/MSC, viability
# Assay: Anticancer human tumor 616215-338-R-J1-PDC patient-derived colon adenocarcinoma cell line growth inhibition [PI3K]
# Settings: for IC50: curve of first compound; for viability, T/C: stronger effect = lower value
# How it was run: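 Stroma-containing spheroids: tumor line, pooled-donor HUVEC, hMSC. Treatments: targeted agents with PI3K inhibitors. Dosing: clinically relevant, half-log spacing, 10 microM ceiling without known Cmax. Read-out: cell viability.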
# [1] = second compound 0.0316 µM, first compound 0.0316 µM
# [2] = second compound 0.0316 µM, first compound 0.1 µM
# [3] = second compound 0.0316 µM, first compound 0.316 µM
# [4] = second compound 0.0316 µM, first compound 1 µM
# [5] = second compound 0.1 µM, first compound 0.0316 µM
# [6] = second compound 0.1 µM, first compound 0.1 µM
# [7] = second compound 0.1 µM, first compound 0.316 µM
# [8] = second compound 0.1 µM, first compound 1 µM
# [9] = second compound 0.316 µM, first compound 0.0316 µM
# [10] = second compound 0.316 µM, first compound 0.1 µM
# [11] = second compound 0.316 µM, first compound 0.316 µM
# [12] = second compound 0.316 µM, first compound 1 µM
# [13] = second compound 1 µM, first compound 0.0316 µM
# [14] = second compound 1 µM, first compound 0.1 µM
# [15] = second compound 1 µM, first compound 0.316 µM
# [16] = second compound 1 µM, first compound 1 µM
# [17] = second compound 3.16 µM, first compound 0.0316 µM
# [18] = second compound 3.16 µM, first compound 0.1 µM
# [19] = second compound 3.16 µM, first compound 0.316 µM
# [20] = second compound 3.16 µM, first compound 1 µM
# [21] = second compound 10 µM, first compound 0.0316 µM
# [22] = second compound 10 µM, first compound 0.1 µM
# [23] = second compound 10 µM, first compound 0.316 µM
# [24] = second compound 10 µM, first compound 1 µM
# 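Further: spheroids exposed to agents for seven days before the viability read.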
structure (smiles),measurement,setting,value
CCN1CCN(Cc2ccc(Nc3ncc(F)c(-c4cc(F)c5nc(C)n(C(C)C)c5c4)n3)nc2)CC1 + Cc1nc(NC(=O)N2CCCC2C(N)=O)sc1-c1ccnc(C(C)(C)C(F)(F)F)c1,IC50,second compound 0.0316 µM,> 1 µM
same,IC50,second compound 0.1 µM,> 1 µM
same,IC50,second compound 0.316 µM,> 1 µM
same,IC50,second compound 1 µM,> 1 µM
same,IC50,second compound 3.16 µM,> 1 µM
same,IC50,second compound 10 µM,> 1 µM
same,"viability, T/C","second compound 0.0316 µM, first compound 0.00316 µM",94%
same,"viability, T/C","second compound 0.0316 µM, first compound 0.01 µM",90.8%
same,"viability, T/C",[1],98.5%
same,"viability, T/C",[2],101%
same,"viability, T/C",[3],110%
same,"viability, T/C",[4],134%
same,"viability, T/C","second compound 0.1 µM, first compound 0.00316 µM",107%
same,"viability, T/C","second compound 0.1 µM, first compound 0.01 µM",120%
same,"viability, T/C",[5],96.9%
same,"viability, T/C",[6],105%
same,"viability, T/C",[7],114%
same,"viability, T/C",[8],113%
same,"viability, T/C","second compound 0.316 µM, first compound 0.00316 µM",113%
same,"viability, T/C","second compound 0.316 µM, first compound 0.01 µM",104%
same,"viability, T/C",[9],111%
same,"viability, T/C",[10],115%
same,"viability, T/C",[11],131%
same,"viability, T/C",[12],110%
same,"viability, T/C","second compound 1 µM, first compound 0.00316 µM",92.5%
same,"viability, T/C","second compound 1 µM, first compound 0.01 µM",99%
same,"viability, T/C",[13],101%
same,"viability, T/C",[14],108%
same,"viability, T/C",[15],120%
same,"viability, T/C",[16],83.9%
same,"viability, T/C","second compound 3.16 µM, first compound 0.00316 µM",96.7%
same,"viability, T/C","second compound 3.16 µM, first compound 0.01 µM",105%
same,"viability, T/C",[17],106%
same,"viability, T/C",[18],103%
same,"viability, T/C",[19],91.9%
same,"viability, T/C",[20],84.1%
same,"viability, T/C","second compound 10 µM, first compound 0.00316 µM",91.3%
same,"viability, T/C","second compound 10 µM, first compound 0.01 µM",82.7%
same,"viability, T/C",[21],92.3%
same,"viability, T/C",[22],74.6%
same,"viability, T/C",[23],68.9%
same,"viability, T/C",[24],52.1%
Cn1cnc2c(F)c(Nc3ccc(Br)cc3Cl)c(C(=O)NOCCO)cc21 + Cc1nc(NC(=O)N2CCCC2C(N)=O)sc1-c1ccnc(C(C)(C)C(F)(F)F)c1,IC50,second compound 0.0316 µM,1.01 µM
same,IC50,second compound 0.1 µM,1.59 µM
same,IC50,second compound 0.316 µM,1.11 µM
same,IC50,second compound 1 µM,0.725 µM
same,IC50,second compound 3.16 µM,0.423 µM
same,IC50,second compound 10 µM,0.379 µM
same,"viability, T/C","second compound 0.0316 µM, first compound 0.00949 µM",107%
same,"viability, T/C","second compound 0.0316 µM, first compound 0.03 µM",94.8%
same,"viability, T/C","second compound 0.0316 µM, first compound 0.0949 µM",99.2%
same,"viability, T/C","second compound 0.0316 µM, first compound 0.3 µM",79.9%
same,"viability, T/C","second compound 0.0316 µM, first compound 0.949 µM",50.1%
same,"viability, T/C","second compound 0.0316 µM, first compound 3 µM",44.3%
same,"viability, T/C","second compound 0.1 µM, first compound 0.00949 µM",111%
same,"viability, T/C","second compound 0.1 µM, first compound 0.03 µM",91.3%
same,"viability, T/C","second compound 0.1 µM, first compound 0.0949 µM",98.2%
same,"viability, T/C","second compound 0.1 µM, first compound 0.3 µM",91.8%
same,"viability, T/C","second compound 0.1 µM, first compound 0.949 µM",55.3%
same,"viability, T/C","second compound 0.1 µM, first compound 3 µM",43.4%
same,"viability, T/C","second compound 0.316 µM, first compound 0.00949 µM",109%
same,"viability, T/C","second compound 0.316 µM, first compound 0.03 µM",101%
same,"viability, T/C","second compound 0.316 µM, first compound 0.0949 µM",77.4%
same,"viability, T/C","second compound 0.316 µM, first compound 0.3 µM",73.1%
same,"viability, T/C","second compound 0.316 µM, first compound 0.949 µM",50.1%
same,"viability, T/C","second compound 0.316 µM, first compound 3 µM",36.9%
same,"viability, T/C","second compound 1 µM, first compound 0.00949 µM",99.7%
same,"viability, T/C","second compound 1 µM, first compound 0.03 µM",95.6%
same,"viability, T/C","second compound 1 µM, first compound 0.0949 µM",83.4%
same,"viability, T/C","second compound 1 µM, first compound 0.3 µM",75.8%
same,"viability, T/C","second compound 1 µM, first compound 0.949 µM",39.2%
same,"viability, T/C","second compound 1 µM, first compound 3 µM",36.5%
same,"viability, T/C","second compound 3.16 µM, first compound 0.00949 µM",106%
same,"viability, T/C","second compound 3.16 µM, first compound 0.03 µM",94.5%
same,"viability, T/C","second compound 3.16 µM, first compound 0.0949 µM",79.3%
same,"viability, T/C","second compound 3.16 µM, first compound 0.3 µM",55.4%
same,"viability, T/C","second compound 3.16 µM, first compound 0.949 µM",36.4%
same,"viability, T/C","second compound 3.16 µM, first compound 3 µM",26.2%
same,"viability, T/C","second compound 10 µM, first compound 0.00949 µM",101%
same,"viability, T/C","second compound 10 µM, first compound 0.03 µM",86.3%
same,"viability, T/C","second compound 10 µM, first compound 0.0949 µM",94%
same,"viability, T/C","second compound 10 µM, first compound 0.3 µM",54.1%
same,"viability, T/C","second compound 10 µM, first compound 0.949 µM",21.9%
same,"viability, T/C","second compound 10 µM, first compound 3 µM",1.33%
Cn1nccc1Nc1nccc(-c2ccn(C(CO)c3ccc(Cl)c(F)c3)c(=O)c2)n1 (stereo unspecified) + Cc1nc(NC(=O)N2CCCC2C(N)=O)sc1-c1ccnc(C(C)(C)C(F)(F)F)c1,IC50,second compound 0.0316 µM,3.46 µM
same,IC50,second compound 0.1 µM,2.98 µM
same,IC50,second compound 0.316 µM,2.27 µM
same,IC50,second compound 1 µM,1.58 µM
same,IC50,second compound 3.16 µM,0.739 µM
same,IC50,second compound 10 µM,0.552 µM
same,"viability, T/C",[1],106%
same,"viability, T/C",[2],81.5%
same,"viability, T/C",[3],83.8%
same,"viability, T/C",[4],68.9%
same,"viability, T/C","second compound 0.0316 µM, first compound 3.16 µM",47.8%
same,"viability, T/C","second compound 0.0316 µM, first compound 10 µM",37.1%
same,"viability, T/C",[5],97.2%
same,"viability, T/C",[6],97.9%
same,"viability, T/C",[7],86.2%
same,"viability, T/C",[8],58.3%
same,"viability, T/C","second compound 0.1 µM, first compound 3.16 µM",56.6%
same,"viability, T/C","second compound 0.1 µM, first compound 10 µM",33.1%
same,"viability, T/C",[9],96.7%
same,"viability, T/C",[10],86%
same,"viability, T/C",[11],87.6%
same,"viability, T/C",[12],72.1%
same,"viability, T/C","second compound 0.316 µM, first compound 3.16 µM",40.7%
same,"viability, T/C","second compound 0.316 µM, first compound 10 µM",29.1%
same,"viability, T/C",[13],92.4%
same,"viability, T/C",[14],97.8%
same,"viability, T/C",[15],67.8%
same,"viability, T/C",[16],57.7%
same,"viability, T/C","second compound 1 µM, first compound 3.16 µM",42.1%
same,"viability, T/C","second compound 1 µM, first compound 10 µM",26.8%
same,"viability, T/C",[17],96%
same,"viability, T/C",[18],89.3%
same,"viability, T/C",[19],68%
same,"viability, T/C",[20],39.3%
same,"viability, T/C","second compound 3.16 µM, first compound 3.16 µM",32.4%
same,"viability, T/C","second compound 3.16 µM, first compound 10 µM",13.9%
same,"viability, T/C",[21],94.2%
same,"viability, T/C",[22],83.9%
same,"viability, T/C",[23],70.2%
same,"viability, T/C",[24],29.7%
same,"viability, T/C","second compound 10 µM, first compound 3.16 µM",5.53%
same,"viability, T/C","second compound 10 µM, first compound 10 µM",1.47%
